According to US9771334B2, “Triketone compound and preparation method and use thereof” (SHANDONG CYNDA CHEMICAL CO., LTD., priority 2013, dated 2017):

tested on: wheat; experiment: Crop safety test (pot culture method); type: in vivo; conditions: dose 75 g/ha, plants with about 4-5 leaves, investigated 15 days later
From the text: (§1) This test example is for describing crop safety of the compound with a structure shown in Formula (1). Crop safety test method (pot culture method): The test targets are wheat and maize. Take flowerpots with an inner diameter of 12 cm, put composite soil (vegetable garden soil:seedling matrix=1:2, v/v) into them till ¾ of flowerpot height, directly sow the crop seeds (budding rate>85%), cover them with 0.2 cm thick soil, and keep the plants for future use when they grow to have about 4-5 leaves. Each compound is dissolved in N,N-dimethylformamide at doses of 75 g/ha or 150 g/ha and diluted with distilled water containing 0.1% tween-80 emulsifier to form 0.1 g/L (75 g/ha) solution and 0.2 g/L (150 g/ha) solution respectively. The solutions are sprayed through an automatic spray tower. After the solutions on weed leaves are dried in the air, the flowerpots are moved into a greenhouse for cultivation. The result is investigated 15 days later.

SMILES | inhibition ratio, Wheat (crop safety) [%]
CC(C)c1ccccc1-n1c(=O)c2cc(C(=O)C3=C(O)CCCC3=O)ccc2n(C)c1=O [Compound 65] | 0
CCn1c(=O)n(-c2ccccc2C)c(=O)c2cc(C(=O)C3=C(O)CCCC3=O)ccc21 [Compound 66] | 0
Cc1ccccc1-n1c(=O)c2cc(C(=O)C3=C(O)CC(C)(C)CC3=O)ccc2n(C)c1=O [Compound 21] | 0

same assay, conditions: dose 150 g/ha, plants with about 4-5 leaves, investigated 15 days later

SMILES | inhibition ratio, Wheat (crop safety) [%]
CC(C)c1ccccc1-n1c(=O)c2cc(C(=O)C3=C(O)CCCC3=O)ccc2n(C)c1=O [Compound 65] | 10
CCn1c(=O)n(-c2ccccc2C)c(=O)c2cc(C(=O)C3=C(O)CCCC3=O)ccc21 [Compound 66] | 10
Cc1ccccc1-n1c(=O)c2cc(C(=O)C3=C(O)CC(C)(C)CC3=O)ccc2n(C)c1=O [Compound 21] | 0

tested on: maize; experiment: Crop safety test (pot culture method); type: in vivo; conditions: dose 75 g/ha, plants with about 4-5 leaves, investigated 15 days later
From the text: as §1

SMILES | inhibition ratio, Maize (crop safety) [%]
CC(C)c1ccccc1-n1c(=O)c2cc(C(=O)C3=C(O)CCCC3=O)ccc2n(C)c1=O [Compound 65] | 0
CCn1c(=O)n(-c2ccccc2C)c(=O)c2cc(C(=O)C3=C(O)CCCC3=O)ccc21 [Compound 66] | 0
Cc1ccccc1-n1c(=O)c2cc(C(=O)C3=C(O)CC(C)(C)CC3=O)ccc2n(C)c1=O [Compound 21] | 0

same assay, conditions: dose 150 g/ha, plants with about 4-5 leaves, investigated 15 days later

SMILES | inhibition ratio, Maize (crop safety) [%]
CC(C)c1ccccc1-n1c(=O)c2cc(C(=O)C3=C(O)CCCC3=O)ccc2n(C)c1=O [Compound 65] | 10
CCn1c(=O)n(-c2ccccc2C)c(=O)c2cc(C(=O)C3=C(O)CCCC3=O)ccc21 [Compound 66] | 5
Cc1ccccc1-n1c(=O)c2cc(C(=O)C3=C(O)CC(C)(C)CC3=O)ccc2n(C)c1=O [Compound 21] | 15

tested on: echinochloa crusgalli; experiment: Herbicidal activity, pot culture method (primary and secondary screening test); type: in vivo; conditions: dose 37.5 g/ha, sprayed at 3-leaf stage, investigated 15 days later
Outline: (§2)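 Percent growth inhibition of weeds sprayed at the 3-leaf stage, 150 g/ha in the primary screen and a lower dose in the secondary screen, scored 15 days after treatment under greenhouse conditions.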

SMILES | inhibition ratio, Echinochloa crusgalli [%]
CC(C)c1ccccc1-n1c(=O)c2cc(C(=O)C3=C(O)CCCC3=O)ccc2n(C)c1=O [Compound 65] | 95
CCn1c(=O)n(-c2ccccc2C)c(=O)c2cc(C(=O)C3=C(O)CCCC3=O)ccc21 [Compound 66] | 100
Cc1ccccc1-n1c(=O)c2cc(C(=O)C3=C(O)CC(C)(C)CC3=O)ccc2n(C)c1=O [Compound 21] | 70

same assay, conditions: dose 75 g/ha, sprayed at 3-leaf stage, investigated 15 days later

SMILES | inhibition ratio, Echinochloa crusgalli [%]
CC(C)c1ccccc1-n1c(=O)c2cc(C(=O)C3=C(O)CCCC3=O)ccc2n(C)c1=O [Compound 65] | 100
CCn1c(=O)n(-c2ccccc2C)c(=O)c2cc(C(=O)C3=C(O)CCCC3=O)ccc21 [Compound 66] | 100
Cc1ccccc1-n1c(=O)c2cc(C(=O)C3=C(O)CC(C)(C)CC3=O)ccc2n(C)c1=O [Compound 21] | 75

same assay, conditions: primary screening, pot culture, 150 g/ha, sprayed at 3-leaf stage, result 15 days later

SMILES | herbicidal activity inhibition ratio (%), Echinochloa crusgalli [%]
CC(C)c1ccccc1-n1c(=O)c2cc(C(=O)C3=C(O)CCCC3=O)ccc2n(C)c1=O [Compound 65] | 80
CCn1c(=O)n(-c2ccccc2C)c(=O)c2cc(C(=O)C3=C(O)CCCC3=O)ccc21 [Compound 66] | 100
Cc1ccccc1-n1c(=O)c2cc(C(=O)C3=C(O)CC(C)(C)CC3=O)ccc2n(C)c1=O [Compound 21] | 85

tested on: amaranthus retroflexus; experiment: as above; type: in vivo; conditions: dose 37.5 g/ha, sprayed at 3-leaf stage, investigated 15 days later
Outline: as §2

SMILES | inhibition ratio, Amaranthus retroflexus [%]
CC(C)c1ccccc1-n1c(=O)c2cc(C(=O)C3=C(O)CCCC3=O)ccc2n(C)c1=O [Compound 65] | 50
CCn1c(=O)n(-c2ccccc2C)c(=O)c2cc(C(=O)C3=C(O)CCCC3=O)ccc21 [Compound 66] | 90
Cc1ccccc1-n1c(=O)c2cc(C(=O)C3=C(O)CC(C)(C)CC3=O)ccc2n(C)c1=O [Compound 21] | 80

same assay, conditions: dose 75 g/ha, sprayed at 3-leaf stage, investigated 15 days later

SMILES | inhibition ratio, Amaranthus retroflexus [%]
CC(C)c1ccccc1-n1c(=O)c2cc(C(=O)C3=C(O)CCCC3=O)ccc2n(C)c1=O [Compound 65] | 60
CCn1c(=O)n(-c2ccccc2C)c(=O)c2cc(C(=O)C3=C(O)CCCC3=O)ccc21 [Compound 66] | 100
Cc1ccccc1-n1c(=O)c2cc(C(=O)C3=C(O)CC(C)(C)CC3=O)ccc2n(C)c1=O [Compound 21] | 90

same assay, conditions: primary screening, pot culture, 150 g/ha, sprayed at 3-leaf stage, result 15 days later

SMILES | herbicidal activity inhibition ratio (%), Amaranthus retroflexus [%]
CC(C)c1ccccc1-n1c(=O)c2cc(C(=O)C3=C(O)CCCC3=O)ccc2n(C)c1=O [Compound 65] | 90
CCn1c(=O)n(-c2ccccc2C)c(=O)c2cc(C(=O)C3=C(O)CCCC3=O)ccc21 [Compound 66] | 93
Cc1ccccc1-n1c(=O)c2cc(C(=O)C3=C(O)CC(C)(C)CC3=O)ccc2n(C)c1=O [Compound 21] | 100

tested on: digitaria sanguinalis; experiment: as above; type: in vivo; conditions: dose 37.5 g/ha, sprayed at 3-leaf stage, investigated 15 days later
Outline: as §2

SMILES | inhibition ratio, Digitaria sanguinalis [%]
CC(C)c1ccccc1-n1c(=O)c2cc(C(=O)C3=C(O)CCCC3=O)ccc2n(C)c1=O [Compound 65] | 30
CCn1c(=O)n(-c2ccccc2C)c(=O)c2cc(C(=O)C3=C(O)CCCC3=O)ccc21 [Compound 66] | 60
Cc1ccccc1-n1c(=O)c2cc(C(=O)C3=C(O)CC(C)(C)CC3=O)ccc2n(C)c1=O [Compound 21] | 70

same assay, conditions: dose 75 g/ha, sprayed at 3-leaf stage, investigated 15 days later

SMILES | inhibition ratio, Digitaria sanguinalis [%]
CC(C)c1ccccc1-n1c(=O)c2cc(C(=O)C3=C(O)CCCC3=O)ccc2n(C)c1=O [Compound 65] | 40
CCn1c(=O)n(-c2ccccc2C)c(=O)c2cc(C(=O)C3=C(O)CCCC3=O)ccc21 [Compound 66] | 97.5
Cc1ccccc1-n1c(=O)c2cc(C(=O)C3=C(O)CC(C)(C)CC3=O)ccc2n(C)c1=O [Compound 21] | 75

same assay, conditions: primary screening, pot culture, 150 g/ha, sprayed at 3-leaf stage, result 15 days later

SMILES | herbicidal activity inhibition ratio (%), Digitaria sanguinalis [%]
CC(C)c1ccccc1-n1c(=O)c2cc(C(=O)C3=C(O)CCCC3=O)ccc2n(C)c1=O [Compound 65] | 100
CCn1c(=O)n(-c2ccccc2C)c(=O)c2cc(C(=O)C3=C(O)CCCC3=O)ccc21 [Compound 66] | 95
Cc1ccccc1-n1c(=O)c2cc(C(=O)C3=C(O)CC(C)(C)CC3=O)ccc2n(C)c1=O [Compound 21] | 85

tested on: eclipta prostrata; experiment: as above; type: in vivo; conditions: dose 37.5 g/ha, sprayed at 3-leaf stage, investigated 15 days later
Outline: as §2

SMILES | inhibition ratio, Eclipta prostrata [%]
CC(C)c1ccccc1-n1c(=O)c2cc(C(=O)C3=C(O)CCCC3=O)ccc2n(C)c1=O [Compound 65] | 30
CCn1c(=O)n(-c2ccccc2C)c(=O)c2cc(C(=O)C3=C(O)CCCC3=O)ccc21 [Compound 66] | 95
Cc1ccccc1-n1c(=O)c2cc(C(=O)C3=C(O)CC(C)(C)CC3=O)ccc2n(C)c1=O [Compound 21] | 40

same assay, conditions: dose 75 g/ha, sprayed at 3-leaf stage, investigated 15 days later

SMILES | inhibition ratio, Eclipta prostrata [%]
CC(C)c1ccccc1-n1c(=O)c2cc(C(=O)C3=C(O)CCCC3=O)ccc2n(C)c1=O [Compound 65] | 50
CCn1c(=O)n(-c2ccccc2C)c(=O)c2cc(C(=O)C3=C(O)CCCC3=O)ccc21 [Compound 66] | 100
Cc1ccccc1-n1c(=O)c2cc(C(=O)C3=C(O)CC(C)(C)CC3=O)ccc2n(C)c1=O [Compound 21] | 50

same assay, conditions: primary screening, pot culture, 150 g/ha, sprayed at 3-leaf stage, result 15 days later

SMILES | herbicidal activity inhibition ratio (%), Eclipta prostrata [%]
CC(C)c1ccccc1-n1c(=O)c2cc(C(=O)C3=C(O)CCCC3=O)ccc2n(C)c1=O [Compound 65] | 80
CCn1c(=O)n(-c2ccccc2C)c(=O)c2cc(C(=O)C3=C(O)CCCC3=O)ccc21 [Compound 66] | 95
Cc1ccccc1-n1c(=O)c2cc(C(=O)C3=C(O)CC(C)(C)CC3=O)ccc2n(C)c1=O [Compound 21] | 95

tested on: setaria viridis; experiment: as above; type: in vivo; conditions: dose 37.5 g/ha, sprayed at 3-leaf stage, investigated 15 days later
Outline: as §2

SMILES | inhibition ratio, Setaria viridis [%]
CC(C)c1ccccc1-n1c(=O)c2cc(C(=O)C3=C(O)CCCC3=O)ccc2n(C)c1=O [Compound 65] | 80
CCn1c(=O)n(-c2ccccc2C)c(=O)c2cc(C(=O)C3=C(O)CCCC3=O)ccc21 [Compound 66] | 97.5
Cc1ccccc1-n1c(=O)c2cc(C(=O)C3=C(O)CC(C)(C)CC3=O)ccc2n(C)c1=O [Compound 21] | 70

same assay, conditions: dose 75 g/ha, sprayed at 3-leaf stage, investigated 15 days later

SMILES | inhibition ratio, Setaria viridis [%]
CC(C)c1ccccc1-n1c(=O)c2cc(C(=O)C3=C(O)CCCC3=O)ccc2n(C)c1=O [Compound 65] | 85
CCn1c(=O)n(-c2ccccc2C)c(=O)c2cc(C(=O)C3=C(O)CCCC3=O)ccc21 [Compound 66] | 100
Cc1ccccc1-n1c(=O)c2cc(C(=O)C3=C(O)CC(C)(C)CC3=O)ccc2n(C)c1=O [Compound 21] | 75

same assay, conditions: primary screening, pot culture, 150 g/ha, sprayed at 3-leaf stage, result 15 days later

SMILES | herbicidal activity inhibition ratio (%), Setaria viridis [%]
CC(C)c1ccccc1-n1c(=O)c2cc(C(=O)C3=C(O)CCCC3=O)ccc2n(C)c1=O [Compound 65] | 98
CCn1c(=O)n(-c2ccccc2C)c(=O)c2cc(C(=O)C3=C(O)CCCC3=O)ccc21 [Compound 66] | 100
Cc1ccccc1-n1c(=O)c2cc(C(=O)C3=C(O)CC(C)(C)CC3=O)ccc2n(C)c1=O [Compound 21] | 100

tested on: abutilon theophrasti; experiment: as above; type: in vivo; conditions: dose 37.5 g/ha, sprayed at 3-leaf stage, investigated 15 days later
Outline: as §2

SMILES | inhibition ratio, Abutilon theophrasti [%]
CC(C)c1ccccc1-n1c(=O)c2cc(C(=O)C3=C(O)CCCC3=O)ccc2n(C)c1=O [Compound 65] | 50
CCn1c(=O)n(-c2ccccc2C)c(=O)c2cc(C(=O)C3=C(O)CCCC3=O)ccc21 [Compound 66] | 100
Cc1ccccc1-n1c(=O)c2cc(C(=O)C3=C(O)CC(C)(C)CC3=O)ccc2n(C)c1=O [Compound 21] | 70

same assay, conditions: dose 75 g/ha, sprayed at 3-leaf stage, investigated 15 days later

SMILES | inhibition ratio, Abutilon theophrasti [%]
CC(C)c1ccccc1-n1c(=O)c2cc(C(=O)C3=C(O)CCCC3=O)ccc2n(C)c1=O [Compound 65] | 70
CCn1c(=O)n(-c2ccccc2C)c(=O)c2cc(C(=O)C3=C(O)CCCC3=O)ccc21 [Compound 66] | 100
Cc1ccccc1-n1c(=O)c2cc(C(=O)C3=C(O)CC(C)(C)CC3=O)ccc2n(C)c1=O [Compound 21] | 100

same assay, conditions: primary screening, pot culture, 150 g/ha, sprayed at 3-leaf stage, result 15 days later

SMILES | herbicidal activity inhibition ratio (%), Abutilon theophrasti [%]
CC(C)c1ccccc1-n1c(=O)c2cc(C(=O)C3=C(O)CCCC3=O)ccc2n(C)c1=O [Compound 65] | 98
CCn1c(=O)n(-c2ccccc2C)c(=O)c2cc(C(=O)C3=C(O)CCCC3=O)ccc21 [Compound 66] | 100
Cc1ccccc1-n1c(=O)c2cc(C(=O)C3=C(O)CC(C)(C)CC3=O)ccc2n(C)c1=O [Compound 21] | 85
